Data published in patent publication US20150258190A1, “NICOTINAMIDE AS ADJUVANT” (NOVARTIS AG, priority 2012, published 2015).

Key:
[1] = cited from earlier work
[2] = cited from earlier work; remark: listed apart in the source
HlaH35L = experiment: Antibody titre at day 23 by Luminex assay; format: in vivo, mice; details: day 23 after first vaccination
Procedure: (§1) At day 23 after the first vaccination with the S. aureus combination vaccine (i.e. one day prior to the challenge with a lethal dose of S. aureus), the HlaH35L, EsxAB, Sta006 and Sta011 antibody titres for each group of mice described in Example 2 were measured by Luminex assay.

Sta011 = experiment: Antibody titre at day 23 by Luminex assay; format: in vivo, mice; details: day 23 after first vaccination
Procedure: as §1

EsxAB = experiment: Antibody titre at day 23 by Luminex assay; format: in vivo, mice; details: day 23 after first vaccination
Procedure: as §1

S. aureus strain Newman = experiment: Survival of vaccinated or mock-injected mice after challenge with a lethal dose of live S. aureus; format: in vivo, CD1 mice
Procedure: Four groups of 47 to 48 CD1 mice were treated as follows: CD1 mice were immunized twice via intraperitoneal injection two weeks apart (on day 0 and day 14), and each mouse received 200 μl of (mock-)vaccine. Groups 1 (Alum-Nam) and 2 (Alum) were mock-injected with alum (saline plus 2 mg/ml aluminium-hydroxide), groups 3 (Combo-NAM) and 4 (Combo only) were immunised with the S. aureus combination vaccine of Example 1. Groups 1 (Alum-Nam) and 3 (Combo-NAM) received 250 mg/kg NAM orally one day before and one day after challenge with a lethal dose of live S. aureus.
On day 24 (i.e. 10 days after the second vaccination), the immunised animals of groups 1-4 were challenged by intraperitoneal injection of a bacterial suspension of S. aureus strain Newman (approximately 2 to 5×10^8 CFU). Cultures of S. aureus were centrifuged, washed twice and diluted in PBS before challenge. Survival of the mice was monitored over a 15-day period post infection.
Survival rates were analysed by Mann-Whitney U-test. Mice were daily monitored and euthanized according to humane endpoints, in agreement with Novartis Animal Welfare Policies.

S. aureus = details: NAM daily beginning 24 hours prior to or 12 hours after infection with S. aureus; cited from earlier work
Sta006 = experiment: Antibody titre at day 23 by Luminex assay; format: in vivo, mouse; details: day 23 after first vaccination
Procedure: as §1

Nc1cccc2c1CN(C1CCC(=O)NC1=O)C2=O (centres unmarked) [lenalidomide]
oncogenic / teratogenic in humans [1]: potentially teratogenic | bone marrow toxicity as adverse effect in patients [1]: frequently observed

N[C@H](CCC(=O)N[C@@H](Cc1c[nH]c2ccccc12)C(=O)O)C(=O)O [γ-D-glutamyl-L-tryptophan]
adverse effects on administration to human subjects ([2]; human, in vivo): without adverse effects | clinical effect on oral mucositis ([2]; humans): no clinical effect

Nc1cccc2c1C(=O)N(C1CCC(=O)NC1=O)C2=O (centres unmarked) [pomalidomide]
oncogenic / teratogenic in humans [1]: potentially teratogenic | bone marrow toxicity as adverse effect in patients [1]: frequently observed

NC(=O)c1cccnc1 [NAM, nicotinamide]
HlaH35L antibody titre in serum, group 3 (vaccinated, NAM treatment) vs group 4 (vaccinated, no NAM treatment) (HlaH35L): No significant difference | Sta011 antibody titre in serum, group 3 (vaccinated, NAM treatment) vs group 4 (vaccinated, no NAM treatment) (Sta011): No significant difference | EsxAB antibody titre in serum, group 3 (vaccinated, NAM treatment) vs group 4 (vaccinated, no NAM treatment) (EsxAB): No significant difference | mice that survived until 15 days post infection (S. aureus strain Newman; CD1 mice, (mock-)vaccine i.p. day 0 and 14, i.p. challenge day 24, NAM 250 mg/kg orally one day before and one day after challenge): 9% | mortality in comparison to mice which had received only the vaccine (S. aureus strain Newman; mice immunized with S. aureus combination vaccine, NAM 250 mg/kg orally): significantly decreased | protecting mice against a lethal infection with S. aureus (S. aureus strain Newman; mice treated with alum alone, NAM 250 mg/kg orally): not effective | dose reported to be reversible hepatotoxic ([1]; animals and humans): > 3 g/day | side effects associated with treatment of human subjects ([1]; human subjects): no significant side effects | oncogenic / teratogenic in humans [1]: neither oncogenic nor teratogenic | immune killing of the bacteria (S. aureus): dramatically enhances | Sta006 antibody titre in serum, group 3 (vaccinated, NAM treatment) vs group 4 (vaccinated, no NAM treatment) (Sta006): No significant difference
